Consider 1 substance from patent US20120204273A1, “COMPOSITIONS RELATING TO A PHOSPHOPROTEIN AND METHODS OF USE” (SANFORD-BURNHAM MEDICAL RESEARCH INSTITUTE, priority 2010, published 2012).

The subject of this test is CDP138. In words: SILAC quantitative phosphoproteomics with PAS antibody immunoprecipitation in 3T3-L1 adipocytes. The settings on record: insulin-stimulated adipocytes. Format: cell-based, mouse. How it is done: Preparation of the Triple-Labeling SILAC Media. Arginine- and lysine-free DMEM was divided into three equal portions and 28 mg/liter of the three Arginine isotopes were added separately to make the Arg-0, Arg-6, and Arg-10 media, respectively. In addition, 48.7 mg/liter L-lysine, L-lysine-D4, and L-lysine13C6, 15N2 were supplemented separately to the three lots containing Arg-0, Arg-6, and Arg-10. Finally, glutamine and antibiotics were added to the media together with the full complement of amino acids (Arg-0/Lys-H4, Arg-6/Lys-D4, and Arg-10/Lys-8) and then sterile-filtered (Millipore). The sterile media were separated into two portions for dialyzed serum-containing and serum free media.
Mass Spectrometric Analysis. For SILAC quantitative proteomic study, the mixture of total lysates from the 3 different groups (as shown in FIG. 1A) was used for immunoprecipitation with PAS antibodies. Enriched proteins were resolved by SDS-PAGE. […] Only proteins that had at least 2 ion scores >20 were identified and quantified. MaxQuant was used to verify and quantify the resulting peptide pairs.
Identification of CDP138 as a novel Akt2 substrate using SILAC-based quantitative proteomics. […] The tryptic peptides were subsequently analyzed by tandem mass spectrometry (MS). […]

Consider insulin, for which the “enrichment of CDP138 in PAS immunoprecipitate” value turned out to be 2.8 fold.
